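Step 1: Grow cells in 96-well plates. Step 2: Expose to compound for 48 hours at 5 concentrations. Step 3: Interpolate endpoints linearly; if unreached, use highest concentration. At the GI50, growth is halved. TGI: concentration producing complete growth inhibition.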
What was measured:
Experiment in all cases: NCI-60 cell line screen, 48 h
786-0 renal = system: 786-0 renal
A498 renal = system: A498 renal
A549 NSCLC = system: A549 NSCLC
ACHN renal = system: ACHN renal
BT-549 breast = system: BT-549 breast
CAKI-1 renal = system: CAKI-1 renal
CCRF-CEM leukemia = system: CCRF-CEM leukemia
COLO 205 colon = system: COLO 205 colon
DU-145 prostate = system: DU-145 prostate
EKVX NSCLC = system: EKVX NSCLC
HCC-2998 colon = system: HCC-2998 colon
HCT-116 colon = system: HCT-116 colon
HCT-15 colon = system: HCT-15 colon
HL-60(TB) leukemia = system: HL-60(TB) leukemia
HOP-62 NSCLC = system: HOP-62 NSCLC
HOP-92 NSCLC = system: HOP-92 NSCLC
HS 578T breast = system: HS 578T breast
HT29 colon = system: HT29 colon
K-562 leukemia = system: K-562 leukemia
KM12 colon = system: KM12 colon
LOX IMVI melanoma = system: LOX IMVI melanoma
M14 melanoma = system: M14 melanoma
MALME-3M melanoma = system: MALME-3M melanoma
MCF7 breast = system: MCF7 breast
MDA-MB-435 = system: MDA-MB-435
MOLT-4 leukemia = system: MOLT-4 leukemia
NCI-H226 lung = system: NCI-H226 lung
NCI-H23 lung = system: NCI-H23 lung
NCI-H460 lung = system: NCI-H460 lung
NCI-H522 lung = system: NCI-H522 lung
NCI/ADR-RES ovarian = system: NCI/ADR-RES ovarian
OVCAR-3 ovarian = system: OVCAR-3 ovarian
OVCAR-4 ovarian = system: OVCAR-4 ovarian
OVCAR-5 ovarian = system: OVCAR-5 ovarian
OVCAR-8 ovarian = system: OVCAR-8 ovarian
PC-3 prostate = system: PC-3 prostate
RXF 393 renal = system: RXF 393 renal
SF-268 CNS = system: SF-268 CNS
SF-295 CNS = system: SF-295 CNS
SF-539 CNS = system: SF-539 CNS
SK-MEL-2 melanoma = system: SK-MEL-2 melanoma
SK-MEL-28 melanoma = system: SK-MEL-28 melanoma
SK-MEL-5 melanoma = system: SK-MEL-5 melanoma
SK-OV-3 ovarian = system: SK-OV-3 ovarian
SN12C renal = system: SN12C renal
SNB-19 CNS = system: SNB-19 CNS
SNB-75 CNS = system: SNB-75 CNS
SR leukemia = system: SR leukemia
SW-620 colon = system: SW-620 colon
T-47D breast = system: T-47D breast
TK-10 renal = system: TK-10 renal
U251 CNS = system: U251 CNS
UACC-257 melanoma = system: UACC-257 melanoma
UACC-62 melanoma = system: UACC-62 melanoma
UO-31 renal = system: UO-31 renal

## COc1ncc(-c2ccc3nccc(C#CCCCCC(=O)O)c3c2)cc1NS(=O)(=O)c1ccc(F)cc1F
786-0 renal
  GI50: 1.04 µM
  TGI: 17.3 µM
A498 renal
  GI50: 0.0408 µM
  TGI: 0.799 µM
A549 NSCLC
  GI50: 0.557 µM
  TGI: > 100 µM
ACHN renal
  GI50: 2.73 µM
  TGI: > 100 µM
BT-549 breast
  GI50: 0.449 µM
  TGI: 8.92 µM
CAKI-1 renal
  GI50: 0.819 µM
  TGI: > 100 µM
CCRF-CEM leukemia
  GI50: 1.21 µM
  TGI: > 100 µM
COLO 205 colon
  GI50: 0.108 µM
  TGI: 30.2 µM
DU-145 prostate
  GI50: 2.09 µM
  TGI: > 100 µM
EKVX NSCLC
  GI50: 1.11 µM
  TGI: 45.1 µM
HCC-2998 colon
  GI50: 0.626 µM
  TGI: > 100 µM
HCT-116 colon
  GI50: 6.85 µM
  TGI: > 100 µM
HCT-15 colon
  GI50: 0.362 µM
  TGI: > 100 µM
HL-60(TB) leukemia
  GI50: 0.283 µM
  TGI: 59.1 µM
HOP-62 NSCLC
  GI50: 1.16 µM
  TGI: > 100 µM
HOP-92 NSCLC
  GI50: 0.0158 µM
  TGI: 0.62 µM
HS 578T breast
  GI50: 0.0657 µM
  TGI: 2.34 µM
HT29 colon
  GI50: 0.0826 µM
  TGI: > 100 µM
K-562 leukemia
  GI50: 17.2 µM
  TGI: > 100 µM
KM12 colon
  GI50: 2.88 µM
  TGI: > 100 µM
LOX IMVI melanoma
  GI50: 0.941 µM
  TGI: 18.9 µM
M14 melanoma
  GI50: 1.61 µM
  TGI: > 100 µM
MALME-3M melanoma
  GI50: 0.0761 µM
  TGI: 0.916 µM
MCF7 breast
  GI50: 0.015 µM
  TGI: > 100 µM
MDA-MB-435
  GI50: 0.845 µM
  TGI: > 100 µM
MOLT-4 leukemia
  GI50: 0.52 µM
  TGI: 33.5 µM
NCI-H226 lung
  GI50: 4.73 µM
  TGI: > 100 µM
NCI-H23 lung
  GI50: 2.39 µM
  TGI: > 100 µM
NCI-H460 lung
  GI50: 0.324 µM
  TGI: > 100 µM
NCI-H522 lung
  GI50: 1.25 µM
  TGI: > 100 µM
NCI/ADR-RES ovarian
  GI50: 3.97 µM
  TGI: > 100 µM
OVCAR-3 ovarian
  GI50: 0.733 µM
  TGI: 23.3 µM
OVCAR-4 ovarian
  GI50: 3.62 µM
  TGI: 83.8 µM
OVCAR-5 ovarian
  GI50: 0.122 µM
  TGI: > 100 µM
OVCAR-8 ovarian
  GI50: 2.36 µM
  TGI: > 100 µM
PC-3 prostate
  GI50: 0.548 µM
  TGI: > 100 µM
RXF 393 renal
  GI50: 1.12 µM
  TGI: 6.02 µM
SF-268 CNS
  GI50: 1.17 µM
  TGI: > 100 µM
SF-295 CNS
  GI50: 0.735 µM
  TGI: 6.45 µM
SF-539 CNS
  GI50: 0.492 µM
  TGI: 5.87 µM
SK-MEL-2 melanoma
  GI50: 1.6 µM
  TGI: 15.2 µM
SK-MEL-28 melanoma
  GI50: 0.539 µM
  TGI: > 100 µM
SK-MEL-5 melanoma
  GI50: 2.84 µM
  TGI: 15 µM
SK-OV-3 ovarian
  GI50: 0.0432 µM
  TGI: 0.657 µM
SN12C renal
  GI50: 2.55 µM
  TGI: > 100 µM
SNB-19 CNS
  GI50: 2.05 µM
  TGI: 84.9 µM
SNB-75 CNS
  GI50: 0.0199 µM
  TGI: 0.98 µM
SR leukemia
  GI50: 1.67 µM
  TGI: 44.1 µM
SW-620 colon
  GI50: 1.91 µM
  TGI: > 100 µM
T-47D breast
  TGI: 0.0849 µM
TK-10 renal
  GI50: 0.0846 µM
  TGI: 9.67 µM
U251 CNS
  GI50: 0.562 µM
  TGI: 27.8 µM
UACC-257 melanoma
  GI50: 0.355 µM
  TGI: 5.92 µM
UACC-62 melanoma
  GI50: 0.274 µM
  TGI: 3.02 µM
UO-31 renal
  GI50: 0.207 µM
  TGI: 14.1 µM

Reference: PubChem BioAssay (NCI)
